Source: patent publication US7135466B2 (Kirin Beer Kabushiki Kaisha, priority 1999, dated 2006)

Tests used:
PDGF-Ra = target: T1, PDGF-Ra (Homo sapiens, UniProt P16234); experiment: Inhibitory activity against PDGF-Ra phosphorylation by PDGF-AA stimulation using G292; format: cell-based; conditions: for IC50: Pharmacological Test Example 1, > means inhibition at indicated concentration not more than 50%, < and << not less than 50%, read-out: PDGF (E) IC50; for inhibition at 0.1 µM: G292, figure in parentheses in >100( ), at 100 nM, read-out: PDGF (E) inhibition (%) at 100 nM
T1 construct: host or cells: G-292 human osteosarcoma cells
Outline: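 G-292 human osteosarcoma cells, serum-starved overnight in 0.1% FBS, were pretreated with compound in DMSO for 1 hr at 37 °C, then stimulated with 50 ng/ml PDGF-AA for 5 min. Lysates were captured on anti-phosphotyrosine PY-20 plates and probed with anti-PDGF-Ra plus HRP secondary; absorbance read at 450 nm.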

c-kit = target: T2, c-kit (Homo sapiens, UniProt P10721); experiment: Inhibitory activity against c-kit autophosphorylation (MO7e cells, h-SCF); format: cell-based; conditions: for IC50: MO7e cells, h-SCF 50 ng/ml, read-out: c-kit IC50; for inhibition at 1 µM: Mo7e, figure in parentheses in −( ), at 1000 nM
T2 construct: MO7e (human megakaryocytic leukemia cell line) which had been arrested for 20 hr; endogenous in cells; host or cells: MO7e human megakaryocytic leukemia cell line
Outline: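 MO7e human megakaryocytic leukemia cells, arrested 20 hr, treated with compound 1 hr, then stimulated with 50 ng/ml h-SCF for 5 min and lysed. Lysates captured on immobilized anti-phosphotyrosine antibody, detected with anti-c-kit primary and HRP secondary antibody; absorbance at 450 nm.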

T2 sequence (P10721 26-976): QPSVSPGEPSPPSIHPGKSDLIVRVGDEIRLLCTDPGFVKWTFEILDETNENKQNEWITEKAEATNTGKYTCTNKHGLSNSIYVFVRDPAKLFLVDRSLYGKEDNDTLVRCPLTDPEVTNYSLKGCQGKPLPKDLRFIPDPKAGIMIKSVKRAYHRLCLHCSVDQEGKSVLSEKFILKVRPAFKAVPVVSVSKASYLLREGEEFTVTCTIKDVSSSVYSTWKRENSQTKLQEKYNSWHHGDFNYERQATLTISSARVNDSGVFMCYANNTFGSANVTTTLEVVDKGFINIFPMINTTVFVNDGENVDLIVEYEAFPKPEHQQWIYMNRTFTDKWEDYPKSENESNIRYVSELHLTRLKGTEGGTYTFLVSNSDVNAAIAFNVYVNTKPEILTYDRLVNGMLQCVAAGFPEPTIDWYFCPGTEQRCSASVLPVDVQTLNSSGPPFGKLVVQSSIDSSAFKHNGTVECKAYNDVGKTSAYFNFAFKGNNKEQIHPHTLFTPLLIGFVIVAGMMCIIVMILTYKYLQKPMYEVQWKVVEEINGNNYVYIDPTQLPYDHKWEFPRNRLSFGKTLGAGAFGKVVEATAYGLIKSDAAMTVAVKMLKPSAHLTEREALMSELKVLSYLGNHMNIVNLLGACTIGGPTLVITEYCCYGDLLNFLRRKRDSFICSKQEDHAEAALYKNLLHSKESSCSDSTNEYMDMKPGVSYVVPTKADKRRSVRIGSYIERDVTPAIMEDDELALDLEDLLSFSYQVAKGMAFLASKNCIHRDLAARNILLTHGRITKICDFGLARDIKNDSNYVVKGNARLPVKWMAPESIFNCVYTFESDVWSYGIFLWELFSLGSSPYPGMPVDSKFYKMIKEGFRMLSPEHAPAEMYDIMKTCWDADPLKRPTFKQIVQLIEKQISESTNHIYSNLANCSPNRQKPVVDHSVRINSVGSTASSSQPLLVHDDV
T1 sequence (P16234 24-1089): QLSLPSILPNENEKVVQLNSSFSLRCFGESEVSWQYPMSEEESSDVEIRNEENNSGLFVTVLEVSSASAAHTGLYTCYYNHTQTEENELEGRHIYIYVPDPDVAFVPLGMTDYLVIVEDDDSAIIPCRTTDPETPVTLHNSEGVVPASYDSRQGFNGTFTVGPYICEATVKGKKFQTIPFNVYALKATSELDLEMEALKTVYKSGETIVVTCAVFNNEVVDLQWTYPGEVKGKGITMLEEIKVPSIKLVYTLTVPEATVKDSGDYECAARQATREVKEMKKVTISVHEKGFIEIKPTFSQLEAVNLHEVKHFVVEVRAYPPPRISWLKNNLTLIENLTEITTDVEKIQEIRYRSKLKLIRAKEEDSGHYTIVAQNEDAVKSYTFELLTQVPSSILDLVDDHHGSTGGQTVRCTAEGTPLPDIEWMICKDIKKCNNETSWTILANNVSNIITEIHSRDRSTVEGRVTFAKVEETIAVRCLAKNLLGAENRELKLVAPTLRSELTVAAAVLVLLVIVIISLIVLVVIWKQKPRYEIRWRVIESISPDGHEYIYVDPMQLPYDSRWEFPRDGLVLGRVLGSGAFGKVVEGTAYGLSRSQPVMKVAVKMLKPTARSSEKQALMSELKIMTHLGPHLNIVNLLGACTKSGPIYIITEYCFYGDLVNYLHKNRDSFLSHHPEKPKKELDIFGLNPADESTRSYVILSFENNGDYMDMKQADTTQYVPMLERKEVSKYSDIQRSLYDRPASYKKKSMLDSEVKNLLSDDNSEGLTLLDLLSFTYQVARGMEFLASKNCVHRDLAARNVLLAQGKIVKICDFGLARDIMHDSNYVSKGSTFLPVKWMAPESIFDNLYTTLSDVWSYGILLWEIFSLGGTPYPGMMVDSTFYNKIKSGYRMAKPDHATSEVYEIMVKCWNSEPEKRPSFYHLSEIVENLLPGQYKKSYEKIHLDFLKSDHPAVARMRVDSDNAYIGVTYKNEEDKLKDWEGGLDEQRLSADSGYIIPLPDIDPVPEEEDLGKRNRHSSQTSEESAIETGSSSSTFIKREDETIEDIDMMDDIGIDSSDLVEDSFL

SMILES | IC50 (PDGF-Ra) [nM] | IC50 (c-kit) [nM] | inhibition at 0.1 µM (PDGF-Ra) [%] | inhibition at 1 µM (c-kit) [%]
COc1cc2nccc(Oc3ccc(NC(=O)OCC4CCCCC4)c(C)c3C)c2cc1OC [Example 285, Cyclohexylmethyl N-{4-[(6,7-dimethoxy-4-quinolyl)oxy]-2,3-dimethylphenyl}carbamate] | < 10 | 85 |  | 
COc1cc2nccc(Oc3ccc(NC(=O)OC4CCCCCC4)cc3)c2cc1OC [Example 286, Cycloheptyl N-{4-[(6,7-dimethoxy-4-quinolyl)oxy]phenyl}carbamate] | < 10 | 54 |  | 
COc1cc2nccc(Oc3ccc(NC(=O)OC4CCCCCC4)c(C)c3C)c2cc1OC [Example 288, Cycloheptyl N-{4-[(6,7-dimethoxy-4-quinolyl)oxy]-2,3-dimethylphenyl}carbamate] | < 10 | 162 |  | 
COc1cc2nccc(Oc3cc(C)c(NC(=O)Oc4ccccc4C)cc3C)c2cc1OC [Example 289, 2-Methylphenyl N-{4-[(6,7-dimethoxy-4-quinolyl)oxy]-2,5-dimethylphenyl}carbamate] | < 10 | 328 |  | 
COc1cccc(OC(=O)Nc2cc(C)c(Oc3ccnc4cc(OC)c(OC)cc34)cc2C)c1 [Example 290, 3-Methoxyphenyl N-{4-[(6,7-dimethoxy-4-quinolyl)oxy]-2,5-dimethylphenyl}carbamate] | 47 | 281 |  | 
COc1cccc(OC(=O)Nc2ccc(Oc3ccnc4cc(OC)c(OC)cc34)c(C)c2C)c1 [Example 291, 3-Methoxyphenyl N-{4-[(6,7-dimethoxy-4-quinolyl)oxy]-2,3-dimethylphenyl}carbamate] | 26 | 124 |  | 
COc1cc2nccc(Oc3cc(C)c(NC(=O)OC4CCc5ccccc5C4)cc3C)c2cc1OC (centres unmarked) [Example 292, 1,2,3,4-Tetrahydro-2-naphthalenyl N-{4-[(6,7-dimethoxy-4-quinolyl)oxy]-2,5-dimethylphenyl}carbamate] | 14 | 262 |  | 
COc1cc2nccc(Oc3ccc(NC(=O)OC4CCc5ccccc5C4)c(C)c3C)c2cc1OC (centres unmarked) [Example 293, 1,2,3,4-Tetrahydro-2-naphthalenyl N-{4-[(6,7-dimethoxy-4-quinolyl)oxy]-2,3-dimethylphenyl}carbamate] | < 10 | 145 |  | 
COc1cc2nccc(Oc3ccc(NC(=O)Oc4ccc(-c5ccccc5)cc4)cc3)c2cc1OC [Example 294, 4-Phenylphenyl N-{4-[(6,7-dimethoxy-4-quinolyl)oxy]phenyl}carbamate] | 15 | 109 |  | 
COc1cc2nccc(Oc3cc(C)c(NC(=O)Oc4ccc(-c5ccccc5)cc4)cc3C)c2cc1OC [Example 295, 4-Phenylphenyl N-{4-[(6,7-dimethoxy-4-quinolyl)oxy]-2,5-dimethylphenyl}carbamate] | > 100 | 178 | 45 | 
COc1cc2nccc(Oc3ccc(NC(=O)Oc4ccc(-c5ccccc5)cc4)c(C)c3C)c2cc1OC [Example 296, 4-Phenylphenyl N-{4-[(6,7-dimethoxy-4-quinolyl)oxy]-2,3-dimethylphenyl}carbamate] | 61 | 109 |  | 
COc1cc2nccc(Oc3ccc(NC(=O)OCCc4ccccc4)cc3)c2cc1OC [Example 297, Phenethyl N-{4-[(6,7-dimethoxy-4-quinolyl)oxy]phenyl}carbamate] | < 10 | 41 |  | 
COc1cc2nccc(Oc3cc(C)c(NC(=O)OCCc4ccccc4)cc3C)c2cc1OC [Example 298, Phenethyl N-{4-[(6,7-dimethoxy-4-quinolyl)oxy]-2,5-dimethylphenyl}carbamate] | < 10 | 119 |  | 
COc1cc2nccc(Oc3ccc(NC(=O)Oc4ccccc4C(C)(C)C)cc3)c2cc1OC [Example 300] | < 10 |  |  | 43
COc1cc2nccc(Oc3cc(C)c(NC(=O)Oc4ccccc4C(C)(C)C)cc3C)c2cc1OC [Example 301, 2-(Tert-butyl)phenyl N-{4-[(6,7-dimethoxy-4-quinolyl)oxy]-2,5-dimethylphenyl}carbamate] | 43 |  |  | 39
COc1cc2nccc(Oc3ccc(NC(=O)Oc4ccccc4C(C)(C)C)c(C)c3C)c2cc1OC [Example 302, 2-(Tert-butyl)phenyl N-{4-[(6,7-dimethoxy-4-quinolyl)oxy]-2,3-dimethylphenyl}carbamate] | 12 | 202 |  | 

More lines, main results first:

IC50 (PDGF-Ra) [nM] | IC50 (c-kit) [nM] | SMILES | inhibition at 0.1 µM (PDGF-Ra) [%] | inhibition at 1 µM (c-kit) [%]
< 10 | 53 | COc1cc2nccc(Oc3ccc(NC(=O)OCCc4ccccc4)c(C)c3C)c2cc1OC [Example 299, Phenethyl N-{4-[(6,7-dimethoxy-4-quinolyl)oxy]-2,3-dimethylphenyl}carbamate] |  | 
11 | 188 | COc1cc2nccc(Oc3ccc(NC(=O)OCCN4CCCCC4)cc3)c2cc1OC [Example 303, 2-Piperidinoethyl N-{4-[(6,7-dimethoxy-4-quinolyl)oxy]phenyl}carbamate] |  | 
63 | 401 | COc1cc2nccc(Oc3cc(C)c(NC(=O)OCCN4CCCCC4)cc3C)c2cc1OC [Example 304, 2-Piperidinoethyl N-{4-[(6,7-dimethoxy-4-quinolyl)oxy]-2,5-dimethylphenyl}carbamate] |  | 
11 | 221 | COc1cc2nccc(Oc3ccc(NC(=O)OCCN4CCCCC4)c(C)c3C)c2cc1OC [Example 305, 2-Piperidinoethyl N-{4-[(6,7-dimethoxy-4-quinolyl)oxy]-2,3-dimethylphenyl}carbamate] |  | 
11 | 72 | COc1cc2nccc(Oc3ccc(NC(=O)OCCN4CCOCC4)cc3)c2cc1OC [Example 306, 2-Morpholinoethyl N-{4-[(6,7-dimethoxy-4-quinolyl)oxy]phenyl}carbamate] |  | 
> 100 | 165 | COc1cc2nccc(Oc3cc(C)c(NC(=O)OCCN4CCOCC4)cc3C)c2cc1OC [Example 307, 2-Morpholinoethyl N-{4-[(6,7-dimethoxy-4-quinolyl)oxy]-2,5-dimethylphenyl}carbamate] | 49 | 
20 | 101 | COc1cc2nccc(Oc3ccc(NC(=O)OCCN4CCOCC4)c(C)c3C)c2cc1OC [Example 308, 2-Morpholinoethyl N-{4-[(6,7-dimethoxy-4-quinolyl)oxy]-2,3-dimethylphenyl}carbamate] |  | 
10 | 285 | COc1cc2nccc(Oc3ccc(NC(=O)OCCCCCCN(C)C)cc3)c2cc1OC [Example 309, 6-(Dimethylamino)hexyl N-{4-[(6,7-dimethoxy-4-quinolyl)oxy]phenyl}carbamate] |  | 
67 | 607 | COc1cc2nccc(Oc3cc(C)c(NC(=O)OCCCCCCN(C)C)cc3C)c2cc1OC [Example 310, 6-(Dimethylamino)hexyl N-{4-[(6,7-dimethoxy-4-quinolyl)oxy]-2,5-dimethylphenyl}carbamate] |  | 
< 10 | 329 | COc1cc2nccc(Oc3ccc(NC(=O)OCCCCCCN(C)C)c(C)c3C)c2cc1OC [Example 311, 6-(Dimethylamino)hexyl N-{4-[(6,7-dimethoxy-4-quinolyl)oxy]-2,3-dimethylphenyl}carbamate] |  | 
< 10 | 29 | COc1cc2ncnc(Oc3ccc(NC(=O)OC4CCCCC4)cc3)c2cc1OC [Example 312, Cyclohexyl N-{4-[(6,7-dimethoxy-4-quinazolinyl)oxy]phenyl}carbamate] |  | 
